The values below come from paper PMC7336998, “Discovery of secondary sulphonamides as IDO1 inhibitors with potent antitumour effects in vivo” (Journal of Enzyme Inhibition and Medicinal Chemistry, 2020).

Structures are written as SMILES. pIC50: −log10 of the molar value.

By pIC50 is commonly meant −log10 of the IC50, conventionally taken in molar units. Read a low pIC50 as a large IC50. In general, inhibition refers to the percentage by which the read-out fell short of the control. A low value points to a response near the control. Usually melting point stands for the temperature of the solid-liquid transition.

The target of one data set is T1, IDO1 (Homo sapiens, UniProt P14902).
T1 construct: a human cervical cancer cell line HeLa that endogenously expresses IDO1 upon IFN-γ treatment; endogenous in cells; host or cells: HeLa cells treated with human IFN-γ
T1 sequence (P14902 whole entry): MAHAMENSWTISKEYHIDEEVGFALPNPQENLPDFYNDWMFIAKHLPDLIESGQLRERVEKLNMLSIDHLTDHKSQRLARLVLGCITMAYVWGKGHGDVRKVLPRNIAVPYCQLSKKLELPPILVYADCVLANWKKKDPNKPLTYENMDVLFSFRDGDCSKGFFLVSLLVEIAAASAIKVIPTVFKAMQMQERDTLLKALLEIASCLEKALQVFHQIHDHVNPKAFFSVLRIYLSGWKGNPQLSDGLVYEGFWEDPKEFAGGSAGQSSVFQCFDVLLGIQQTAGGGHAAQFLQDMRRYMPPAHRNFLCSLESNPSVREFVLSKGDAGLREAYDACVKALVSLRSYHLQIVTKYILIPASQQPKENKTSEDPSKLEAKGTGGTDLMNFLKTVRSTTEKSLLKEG
In words: HeLa cell-based IDO1/kynurenine assay. The following applies: for pIC50: HeLa cells, IFN-γ induced IDO1, kynurenine readout; for inhibition at 30 µM: percentage inhibition at 30 μM, IFN-γ-treated HeLa cells, kynurenine in media. Here is the method: (§1) The main bioassays performed in the study, including HeLa cell-based IDO1/kynurenine assay, Western blot analysis, T cell proliferation and Treg cell differentiation experiments, were carried out as described previously.
It is well known that IDO1 is broadly expressed in human cancers and is induced by pro-inflammatory cytokines, such as interferon gamma (IFN-γ) and tumour necrosis factor alpha (TNF-α)[41]. Here we utilised a human cervical cancer cell line HeLa that endogenously expresses IDO1 upon IFN-γ treatment to evaluate the IDO1 inhibitory activity of the synthesised compounds by measuring kynurenine secreted into the media. […] Thus, we also employed this cellular assay to detect false positive IDO1 inhibitors and cytotoxic compounds by measuring HeLa cell viability. Clinical candidate navoximod was used as an assay control.

A further data set has as its system IDO1 protein expression. Put plainly: Western blot of IDO1 protein expression in IFN-γ-treated HeLa cells. The class given is cell-based, human. The following applies: HeLa cells, IFN-γ 100 ng/mL 24 h, then compounds at their IC50 concentrations for 24 h. As for the experimental part: as §1
To exclude the possibility that these secondary sulphonamides inhibit IDO1 activity by down-regulating IDO1 expression, we utilised Western blot to measure the expression of IDO1 protein in HeLa cells treated with different compounds.
Figure 3. […] (B) The greyscale scanning statistical results of A. (C) HeLa cells were incubated with compound 5d (3, 10, 30 μM) for 24 h. (D) The greyscale scanning statistical results of C. (E) HeLa cells were incubated with compound 5d (3, 10, 30 μM) for 48 h. (F) The greyscale scanning statistical results of E. Data are presented as means ± SEM (n = 3).
For orientation: Immunoblotting shows a protein as a band on a membrane.

Take `C=CC(=O)Nc1ccc(S(=O)(=O)NCCc2ccccc2)cc1` [5e, N-(4-(N-Phenethylsulfamoyl)phenyl)acrylamide]: the melting point lay within 154 to 156 °C. Also, at IDO1, the pIC50 was 4.58 and 30 µM produced 55.2% inhibition.
The matching figures for `C=CC(=O)Nc1ccc(S(=O)(=O)NCc2ccc(C(F)(F)F)cc2)cc1` [5f, N-(4-(N-(4-(Trifluoromethyl)benzyl)sulfamoyl)phenyl)acrylamide]: 198 to 200 °C, 4.41 and 38.2%.
The matching figures for `C=CC(=O)Nc1ccc(S(=O)(=O)NCc2cccc(C(F)(F)F)c2)cc1` [5g, N-(4-(N-(3-(Trifluoromethyl)benzyl)sulfamoyl)phenyl)acrylamide]: 152 to 154 °C, 4.52 and 49.5%.
In turn, `C=CC(=O)Nc1ccc(S(=O)(=O)NCc2ccc(F)cc2)cc1` [5h, N-(4-(N-(4-Fluorobenzyl)sulfamoyl)phenyl)acrylamide] yielded a melting point of 178 to 180 °C. At IDO1, this compound showed a pIC50 of 4.69 and an inhibition at 30 µM of 70.9%.
For the compound `C=CC(=O)Nc1ccc(S(=O)(=O)NCc2cccc(F)c2)cc1` [5i, N-(4-(N-(3-Fluorobenzyl)sulfamoyl)phenyl)acrylamide], the melting point lay in the range of 152 to 154 °C. In addition, on IDO1, the pIC50 was 4.40 and the inhibition at 30 µM was determined as 37.8%.
`C=CC(=O)Nc1ccc(S(=O)(=O)NCc2ccccc2Cl)cc1` [5j, N-(4-(N-(2-Chlorobenzyl)sulfamoyl)phenyl)acrylamide] displayed a melting point of 178 to 180 °C. For the same compound, at IDO1, the negative-log IC50 (pIC50) is 4.64 and the inhibition at 30 µM was 65.1%.
With `C=CC(=O)Nc1ccc(S(=O)(=O)NCc2ccc(Br)cc2)cc1` [5k, N-(4-(N-(4-Bromobenzyl)sulfamoyl)phenyl)acrylamide], the melting point fell in the range of 194 to 196 °C. Besides, at IDO1, the pIC50 is 4.38 and the inhibition at 30 µM is 37.5%.
`C=CC(=O)Nc1ccc(S(=O)(=O)NCc2ccc(Cl)c(Cl)c2)cc1` [5m, N-(4-(N-(3,4-Dichlorobenzyl)sulfamoyl)phenyl)acrylamide]: the melting point fell in the range of 148 to 150 °C. In addition, on IDO1, the pIC50 is 4.43 and the inhibition at 30 µM worked out at 44%.
Taken in the same sequence, the figures for `C=CC(=O)Nc1ccc(S(=O)(=O)Nc2ccccc2)cc1` [8a, N-(4-(N-Phenylsulfamoyl)phenyl)acrylamide] were 212 to 213 °C, 4.88 and 85.9%.
As for `C=CC(=O)Nc1ccc(S(=O)(=O)Nc2ccc(C)cc2)cc1` [8b, N-(4-(N-(p-Tolyl)sulfamoyl)phenyl)acrylamide], the melting point was 230 to 232 °C. On IDO1, this compound came in with an inhibition at 30 µM of 25.3%.
The matching figures for `C=CC(=O)Nc1ccc(S(=O)(=O)Nc2ccc(OC)cc2)cc1` [8c, N-(4-(N-(4-Methoxyphenyl)sulfamoyl)phenyl)acrylamide]: 234 to 235 °C and 20.9%.
As for `C=CC(=O)Nc1ccc(S(=O)(=O)Nc2cccc(OC)c2)cc1` [8d, N-(4-(N-(3-Methoxyphenyl)sulfamoyl)phenyl)acrylamide], the melting point is 197 to 199 °C. Further, at IDO1, the pIC50 is 4.87 and the inhibition at 30 µM is 74.8%.
Taken in the same sequence, the figures for `C=CC(=O)Nc1ccc(S(=O)(=O)Nc2cccc(F)c2)cc1` [8e, N-(4-(N-(3-Fluorophenyl)sulfamoyl)phenyl)acrylamide] were 212 to 215 °C, 4.75 and 69.7%.
The compound `C=CC(=O)Nc1ccc(S(=O)(=O)Nc2cccc(Cl)c2)cc1` [8f, N-(4-(N-(3-Chlorophenyl)sulfamoyl)phenyl)acrylamide] registered a melting point of 217 to 219 °C. On IDO1, this compound showed a pIC50 of 5.02 and an inhibition at 30 µM of 89.5%. Besides, the “expression of IDO1 protein” value in the data set with IDO1 protein expression is “did not influence IDO1 expression”.
`C=CC(=O)Nc1ccc(S(=O)(=O)Nc2ncccn2)cc1` [8h, N-(4-(N-(Pyrimidin-2-yl)sulfamoyl)phenyl)acrylamide]: the melting point lay in the range of 229 to 230 °C. On IDO1, this compound had an inhibition at 30 µM of 16.4%.
Taken in the same sequence, the figures for `C=CC(=O)Nc1ccc(S(=O)(=O)Nc2onc(C)c2C)cc1` [8i, N-(4-(N-(3,4-Dimethylisoxazol-5-yl)sulfamoyl)phenyl)acrylamide] were 206 to 208 °C and 23.6%.
As for `C=CC(=O)Nc1ccc(S(=O)(=O)Nc2cc(C)on2)cc1` [8j, N-(4-(N-(5-Methylisoxazol-3-yl)sulfamoyl)phenyl)acrylamide], the melting point was in the range of 232 to 233 °C. At IDO1, at 30 µM the inhibition was 22.7%.
